Our source for the IC50 values is patent publication US10308629B2, “1H-pyrrol-3-amines” (BAYER PHARMA AKTIENGESELLSCHAFT, priority 2015, dated 2019).

(recombinant) catalytic domain of human Bub1 (amino acids 704-1085), sequence (O43683 704-1085): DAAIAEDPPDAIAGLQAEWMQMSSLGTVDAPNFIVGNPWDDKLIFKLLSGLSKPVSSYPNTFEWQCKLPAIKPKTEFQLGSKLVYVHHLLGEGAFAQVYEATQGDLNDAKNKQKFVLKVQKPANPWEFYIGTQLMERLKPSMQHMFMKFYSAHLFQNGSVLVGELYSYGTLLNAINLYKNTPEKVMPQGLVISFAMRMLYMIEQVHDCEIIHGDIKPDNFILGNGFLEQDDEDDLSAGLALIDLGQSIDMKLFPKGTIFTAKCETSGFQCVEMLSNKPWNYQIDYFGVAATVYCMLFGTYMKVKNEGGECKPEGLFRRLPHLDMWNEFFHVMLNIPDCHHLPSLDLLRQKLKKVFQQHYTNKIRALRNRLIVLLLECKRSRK

The assay concerns the target (recombinant) catalytic domain of human Bub1 (amino acids 704-1085) (Homo sapiens (Human), UniProt O43683). Nature of the assay: Bub1 kinase assay (TR-FRET). Type of assay: biochemical. The settings on record: ATP 10 μM, peptide substrate 1 μM, 60 min at 22° C., read-out: Inhibition of Bub1 kinase IC50. The source says:
Bub1-inhibitory activities of compounds described in the present invention were quantified using a time-resolved fluorescence energy transfer (TR-FRET) kinase assay which measures phosphorylation of the synthetic peptide Biotin-Ahx-VLLPKKSFAEPG (SEQ ID No. 1) (C-terminus in amide form), purchased from e.g. Biosyntan (Berlin, Germany) by the (recombinant) catalytic domain of human Bub1 (amino acids 704-1085), expressed in Hi5 insect cells with an N-terminal His6-tag and purified by affinity-(Ni-NTA) and size exclusion chromatography.
In a typical assay 11 different concentrations of each compound (0.1 nM, 0.33 nM, 1.1 nM, 3.8 nM, 13 nM, 44 nM, 0.15 μM, 0.51 μM, 1.7 μM, 5.9 μM and 20 μM) were tested in duplicate within the same microtiter plate. To this end, 100-fold concentrated compound solutions (in DMSO) were previously prepared by serial dilution (1:3.4) of 2 mM stocks in a clear low volume 384-well source microtiter plate (Greiner Bio-One, Frickenhausen, Germany), from which 50 nl of compounds were transferred into a black low volume test microtiter plate from the same supplier. Subsequently, 2 μL of Bub1 (the final concentration of Bub1 was adjusted depending on the activity of the enzyme lot in order to be within the linear dynamic range of the assay: typically ˜200 ng/mL were used) in aqueous assay buffer [50 mM Tris/HCl pH 7.5, 10 mM magnesium chloride (MgCl2), 200 mM potassium chloride (KCl), 1.0 mM dithiothreitol (DTT), 0.1 mM sodium ortho-vanadate, 1% (v/v) glycerol, 0.01% (w/v) bovine serum albumine (BSA), 0.005% (v/v) Trition X-100 (Sigma), 1× Complete EDTA-free protease inhibitor mixture (Roche)] were added to the compounds in the test plate and the mixture was incubated for 15 min at 22° C. to allow pre-equilibration of the putative enzyme-inhibitor complexes before the start of the kinase reaction, which was initiated by the addition of 3 μL 1.67-fold concentrated solution (in assay buffer) of adenosine-tri-phosphate (ATP, 10 μM final concentration) and peptide substrate (1 μM final concentration). The resulting mixture (5 μL final volume) was incubated at 22° C. during 60 min. and the reaction w as stopped by the addition of 5 μL of an aqueous EDTA-solution (50 mM EDTA, in 100 mM HEPES pH 7.5 and 0.2% (w/v) bovine serum albumin) which also contained the TR-FRET detection reagents (0.2 μM streptavidin-XL665 [Cisbio Bioassays, Codolet, France] and 1 nM anti-phosho-Serine antibody [Merck Millipore, cat. #35-002] and 0.4 nM LANCE EU-W1024 labeled anti-mouse IgG antibody [Perkin-Elmer, product no. AD0077, alternatively a Terbium-cryptate-labeled anti-mouse IgG antibody from Cisbio Bioassays can be used]). The stopped reaction mixture was further incubated 1 h at 22° C. in order to allow the formation of complexes between peptides and detection reagents. Subsequently, the amount of product was evaluated by measurement of the resonance energy transfer from the Eu-chelate-antibody complex recognizing the Phosphoserine residue to the streptavidin-XL665 bound to the biotin moiety of the peptide. To this end, the fluorescence emissions at 620 nm and 665 nm after excitation at 330-350 nm were measured in a TR-FRET plate reader, e.g. a Rubystar or Pherastar (both from BMG Labtechnologies, Offenburg, Germany) or a Viewlux (Perkin-Elmer) and the ratio of the emissions (665 nm/622 nm) was taken as indicator for the amount of phosphorylated substrate. The data were normalised using two sets of control wells for high−(=enzyme reaction without inhibitor=0%=Minimum inhibition) and low−(=all assay components without enzyme=100%=Maximum inhibition) Bub1 activity. IC50 values were calculated by fitting the normalized inhibition data to a 4-parameter logistic equation (Minimum, Maximum, IC50, Hill; Y=Max+(Min−Max)/(1+(X/IC50)Hill)).
In the case of `C[C@@]12C[C@@H]1C(=O)c1c([nH]c(-c3ccnc(NC(=O)C4CC4)c3)c1Nc1ccccc1)C2=O` (relative stereo) [Example 32, N-4-[rel-(4aS,5aR)-5a-Methyl-4,6-dioxo-3-(phenylamino)-1,4,4a,5,5a,6-hexahydrocyclopropa[f]indol-2-yl]pyridin-2-ylcyclopropanecarboxamide], the IC50 is 30 nM.
Then `CC1(C(=O)Nc2cc(-c3[nH]c4c(c3Nc3ccccc3)C(=O)[C@@H]3C[C@]3(C)C4=O)ccn2)CC1` (relative stereo) [Example 33, N-{4-[rel-(4aR,5aS)-3-Anilino-5a-methyl-4,6-dioxo-1,4,4a,5,5a,6-hexahydrocyclopropa[f]indol-2-yl]pyridin-2-yl}-1-methylcyclopropanecarboxamide], with 110 nM; and `Cn1ccc(C(=O)Nc2cc(-c3[nH]c4c(c3Nc3ccccc3)C(=O)[C@H]3C[C@@]3(C)C4=O)ccn2)n1` (relative stereo) [Example 34, 1-Methyl-N-4-[rel-(4aS,5aR)-5a-methyl-4,6-dioxo-3-(phenylamino)-1,4,4a,5,5a,6-hexahydrocyclopropa[f]indol-2-yl]pyridin-2-yl-1H-pyrazole-3-carboxamide], with 35 nM.
Then `COc1cc(C(=O)Nc2cc(-c3[nH]c4c(c3Nc3ccccc3)C(=O)[C@H]3C[C@@]3(C)C4=O)ccn2)ccc1F` (relative stereo) [Example 35, 4-Fluoro-3-methoxy-N-4-[rel-(4aS,5aR)-5a-methyl-4,6-dioxo-3-(phenylamino)-1,4,4a,5,5a,6-hexahydrocyclopropa[f]indol-2-yl]pyridin-2-ylbenzamide], with 71 nM.
Take `O=c1ccccc2[nH]c(-c3ccncc3)c(Nc3ccccc3)c12` [Example 21, 3-(Phenylamino)-2-(pyridin-4-yl)cyclohepta[b]pyrrol-4(1H)-one]: the IC50 came to 8 nM.
To `O=C1CCCCc2[nH]c(-c3ccncc3)c(Nc3ccccc3)c21` [Example 22, 3-(Phenylamino)-2-(pyridin-4-yl)-5,6,7,8-tetrahydrocyclohepta[b]pyrrol-4(1H)-one] belongs 6 nM; to `Cc1ccc(=O)c2c(Nc3ccccc3)c(-c3ccnc(N)c3)[nH]c2c1` [Example 23, 2-(2-Aminopyridin-4-yl)-7-methyl-3-(phenylamino)cyclohepta[b]pyrrol-4(1H)-one], 26 nM.
To “(1S,2S)-2-Fluoro-N-4-[[(4aR,5aR) or (4aS,5aS)]-5a-methyl-4-oxo-3-(phenylamino)-1,4,4a,5,5a,6-hexahydrocyclopropa[f]indol-2-yl]pyridin-2-ylcyclopropanecarboxamide [Example 37]” belongs 11 nM; to “(1S,2S)-2-Fluoro-N-4-[[(4aS,5aS) or (4aR,5aR)]-5a-methyl-4-oxo-3-(phenylamino)-1,4,4a,5,5a,6-hexahydrocyclopropa[f]indol-2-yl]pyridin-2-ylcyclopropanecarboxamide [Example 36]”, 16 nM; to “(4aR,5aR or 4aS,5aS)-3-(Phenylamino)-2-(pyridin-4-yl)-4a,5,5a,6-tetrahydrocyclopropa[f]indol-4(1H)-one [Example 13]”, 19 nM.
As for “(4aR,5aR or 4aS,5aS)-5a-Methyl-3-(phenylamino)-2-(pyridin-4-yl)-4a,5,5a,6-tetrahydrocyclopropa[f]indol-4(1H)-one [Example 17]”, the IC50 turned out to be 5 nM.
For the compound “(4aS,5aS or 4aR,5aR)-3-(Phenylamino)-2-(pyridin-4-yl)-4a,5,5a,6-tetrahydrocyclopropa[f]indol-4(1H)-one [Example 14]”, the IC50 came to 4 nM.
“(4aS,5aS or 4aR,5aR)-5a-Methyl-3-(phenylamino)-2-(pyridin-4-yl)-4a,5,5a,6-tetrahydrocyclopropa[f]indol-4(1H)-one [Example 18]”: the IC50 turned out to be 6 nM.
Take “(5R,7S or 5S,7R)-2-(2-Aminopyridin-4-yl)-6,6-dimethyl-3-(phenylamino)-1,5,6,7-tetrahydro-4H-5,7-methanoindol-4-one [Example 3]”: the IC50 worked out at 648 nM.
Consider “(5S,7R or 5R,7S)-2-(2-Aminopyridin-4-yl)-6,6-dimethyl-3-(phenylamino)-1,5,6,7-tetrahydro-4H-5,7-methanoindol-4-one [Example 4]”, for which the IC50 amounted to 2930 nM.
To “N-4-[(4aR,5aR or 4aS,5aS)-5a-Methyl-4-oxo-3-(phenylamino)-1,4,4a,5,5a,6-hexahydrocyclopropa[f]indol-2-yl]pyridin-2-ylacetamide [Example 19]” belongs 8 nM; to “N-4-[(4aS,5aS or 4aR,5aR)-5a-Methyl-4-oxo-3-(phenylamino)-1,4,4a,5,5a,6-hexahydrocyclopropa[f]indol-2-yl]pyridin-2-ylacetamide [Example 20]”, 36 nM; to “N-4-[[(4aR,5aR) or (4aS,5aS)]-5a-Methyl-4-oxo-3-(phenylamino)-1,4,4a,5,5a,6-hexahydrocyclopropa[f]indol-2-yl]pyridin-2-yl-1H-pyrazole-3-carboxamide [Example 45]”, 18 nM.
Take “N-4-[[(4aS,5aS) or (4aR,5aR)]-5a-Methyl-4-oxo-3-(phenylamino)-1,4,4a,5,5a,6-hexahydrocyclopropa[f]indol-2-yl]pyridin-2-yl-1H-pyrazole-3-carboxamide [Example 44]”: the IC50 came out at 5 nM.
Regarding “N-4-[[(7R) or (7S)]-7-Methyl-4-oxo-3-(phenylamino)-1,4,5,6,7,8-hexahydrocyclohepta[b]pyrrol-2-yl]pyridin-2-ylacetamide [Example 39]”, the IC50 came to 5 nM.
Take “N-4-[[(7S) or (7R)]-7-Methyl-4-oxo-3-(phenylamino)-1,4,5,6,7,8-hexahydrocyclohepta[b]pyrrol-2-yl]pyridin-2-ylacetamide [Example 38]”: the IC50 was determined as 27 nM.
Consider “N-{4-[[(4aR,5aR) or (4aS,5aS)]-3-Anilino-5a-methyl-4-oxo-1,4,4a,5,5a,6-hexahydrocyclopropa[f]indol-2-yl]pyridin-2-yl}-2,6-difluorobenzamide [Example 46]”, for which the IC50 came out at 4 nM.
As to “N-{4-[[(4aR,5aR) or (4aS,5aS)]-3-anilino-5a-methyl-4-oxo-1,4,4a,5,5a,6-hexahydrocyclopropa[f]indol-2-yl]pyridin-2-yl}-3-fluoro-4-methoxybenzamide [Example 50]”, the IC50 was 13 nM.
For the compound “N-{4-[[(4aS,5aS) or (4aR,5aR)]-3-anilino-5a-methyl-4-oxo-1,4,4a,5,5a,6-hexahydrocyclopropa[f]indol-2-yl]pyridin-2-yl}-2,6-difluorobenzamide [Example 47]”, the IC50 stood at 7 nM.
To “N-{4-[[(4aS,5aS) or (4aR,5aR)]-3-anilino-5a-methyl-4-oxo-1,4,4a,5,5a,6-hexahydrocyclopropa[f]indol-2-yl]pyridin-2-yl}-3-fluoro-4-methoxybenzamide [Example 51]” belongs 12 nM.
